Laboratory results reported in paper PMC10591299, “Targeting SHP2 with an Active Site Inhibitor Blocks Signaling and Breast Cancer Cell Phenotypes” (ACS Bio & Med Chem Au, 2023).
Where two headings read alike, the source gives them in different places.

What was measured:
SHP2 [1] = target: T1, SHP2 (Homo sapiens, UniProt Q06124); experiment: PTPase assay, GST-fusion PTP domain of SHP2, DiFMUP substrate; type: biochemical; conditions: for fold difference: SHP2 IC50 relative to CNBCA
T1 construct: the GST fusion of the PTP domains of SHP2, SHP1, and PTP1B were produced and purified as reported by us previously; GST; made in house
T1 sequence (Q06124 247-517 limits assumed): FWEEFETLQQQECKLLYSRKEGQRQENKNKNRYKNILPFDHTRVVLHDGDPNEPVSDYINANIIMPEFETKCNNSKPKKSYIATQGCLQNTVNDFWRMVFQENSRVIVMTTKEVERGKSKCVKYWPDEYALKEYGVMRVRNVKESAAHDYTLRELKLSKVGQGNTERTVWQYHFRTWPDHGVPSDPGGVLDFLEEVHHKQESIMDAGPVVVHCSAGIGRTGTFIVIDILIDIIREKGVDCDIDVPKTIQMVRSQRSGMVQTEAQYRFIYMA
Experimental: After completion of synthesis, both CNBCA and CNBBA were purified on silica gel, and purity was determined by HPLC. The purified compounds were then tested for their effect on the SHP2 enzyme activity and on the activity of the selected control PTPs (SHP1 and PTP1B) by the phosphotyrosyl phosphatase (PTPase) assay as described previously.[30],[31] First, the GST fusion of the PTP domains of SHP2, SHP1, and PTP1B were produced and purified as reported by us previously.[32] The reactions were performed in a buffer containing 10 mM Tris-HCl (pH 7.2), 100 mM NaCl, 1 mM EDTA, 1 mM dithiothreitol (DTT), and 0.01% Tween-20. Briefly, CNBCA or CNBBA was added first in a serial dilution ranging from 100 μM to 97 nM followed by the enzymes (SHP2, SHP1, or PTP1B) to a final concentration of 1 nM. After 5 min of incubation at room temperature, the reactions were started by adding the artificial substrate DiFMUP (6,8-difluoro-4-methylumbelliferyl phosphate) to a final concentration of 20 μM for SHP2, 35 μM for SHP1, and 10 μM for PTP1B in a reaction volume of 100 μL; variations in DiFMUP concentrations reflect the reported Km values for the respective PTPs.[33] The complete mixture was incubated at 37 °C for 20 min, and fluorescence intensity was measured by the Synergy 4 plate reader at the excitation and emission wavelengths of 360 and 460 nm, respectively. The half inhibitory concentration (IC50) value of each compound was calculated and plotted using Graphpad Prism software.
We used the PTPase assay described previously[30],[31] to evaluate the effect of the newly synthesized compounds on the enzymatic activity of SHP2, SHP1, and PTP1B. The PTP domains of the indicated proteins were prepared as reported by us recently.[32] The artificial PTP substrate DiFMUP (6,8-Difluoro-4-Methylumbelliferyl Phosphate) was purchased from Invitrogen. The purified proteins were dialyzed into a phosphatase buffer containing 10 mM Tris-HCl ([…]), 100 mM NaCl, 1.0 mM EDTA, 1.0 mM dithiothreitol (DTT), and 0.01% Tween-20. Briefly, the PTPase reactions were performed in 100 μL volume containing 1 nM enzyme, inhibitors in serial dilutions (12 nM to 100 μM), and DiFMUP to a final concentration of 20 μM for SHP2, 35 μM for SHP1, and 10 μM for PTP1B. Differences in DiFMUP concentrations reflect the reported Km values for each PTP.[37] The mixtures were incubated at 37 °C for 20 min and transferred to 96 well plates, and the fluorescence intensity was measured by a Synergy 4 plate reader at the excitation and emission wavelengths of 360 and 460 nm, respectively. Graphpad Prism software was used to calculate the IC50 values.

SHP1 = target: T2, SHP1 (Homo sapiens, UniProt P29350); design: method as in PMID 33043190; conditions: previously shown; cited from earlier work
T2 construct: The GST fusion PTP domains of SHP1 and PTP1B were expressed and purified in a fashion similar to that of SHP2; GST; made in house
T2 sequence (P29350 244-515 limits assumed): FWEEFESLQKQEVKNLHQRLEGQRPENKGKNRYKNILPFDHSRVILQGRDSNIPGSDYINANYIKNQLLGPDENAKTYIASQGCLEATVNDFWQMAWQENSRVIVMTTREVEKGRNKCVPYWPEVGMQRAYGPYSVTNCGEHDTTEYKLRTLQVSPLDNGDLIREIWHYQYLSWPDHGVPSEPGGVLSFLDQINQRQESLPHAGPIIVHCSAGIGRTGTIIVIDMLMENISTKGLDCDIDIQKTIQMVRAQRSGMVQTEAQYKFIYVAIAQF

SHP2 [2] = target: T1, SHP2; design: method as in PMID 33043190; conditions: previously published parent compound, included for comparison; cited from earlier work

Compound | IC50 (SHP2 [1]; PTP domain, 1 nM enzyme, 20 μM DiFMUP, 37 °C 20 min) [µM] | fold difference (SHP2 [1]) [fold] | selectivity for inhibition of SHP2 over SHP1 (SHP1) | IC50 (SHP2 [2]) [µM]
CCCCCCCCCOc1ccc(-c2ccc(CC(=O)O)cc2)cc1CCCC(=O)O [CNBBA, 4-(4′-(carboxymethyl)-4-(nonyloxy)-[1,1′-biphenyl]-3-yl) butanoic acid] | 5.1 | 5.8 |  | 
CCCCCCCCCOc1c(CCCC(=O)O)cc(-c2ccc(C(=O)O)cc2)cc1CCCC(=O)O [CNBDA] |  | 5.7 | approximately 25 fold | 5
